Reference: PMC9494960, “Antiamoebic Activity of Imidazothiazole Derivatives against Opportunistic Pathogen Acanthamoeba castellanii” (Antibiotics, 2022)
pIC50: −log10 of the molar value.

How the values were obtained:
[1] = system: A. castellanii genotype T4 (ATCC 50492) trophozoites; test: Amoebicidal assay (Trypan blue exclusion, haemocytometer counting); assay type: cell-based, Acanthamoeba castellanii; details: for Amoebicidal Activity Inhibition % ± SEM: 50 µM concentration, Supplementary Table S1; for amoebicidal effects / antiamoebic activity against A. castellanii: 50 µM, 24 h, 30 °C; for pIC50: tested at 12.5, 25, 50 and 100 µM against A. castellanii
Experimental: A. castellanii genotype T4 (ATCC 50492) trophozoites were used in this study. The amoebae were axenically cultivated at 30 °C in T-75 cm^3 culture flask using a proteose-peptone yeast extract-glucose (PYG) broth culture. Upon confluency, amoeba cultured flask was placed on ice for 10 min followed by gently tapping to dislodge the adhered trophozoites. Next, culture was centrifuged at 3000× g for 5 min. The supernatant was discarded and the pellet was re-suspended in 1 mL of Roswell Park Memorial Institute (RPMI) media. Finally, amoebae were counted via haemocytometer microscopically and the desired initial inoculum (5 × 10^5) was adjusted and used in different assays. Different molecules were tested against A. castellanii to examine their antiamoebic effects as previously reported. Briefly, A. castellanii (5 × 10^5) were incubated with 50 µM of the tested compounds for 24 h at 30 °C with a final assays volume of 0.5 mL in a 24-well plate. For controls, amoebae cultured in RPMI alone and with 0.25% sodium dodecyl sulfate (SDS) was taken as negative and positive control, respectively. Finally, each well was stained with Trypan blue (0.1%) and viable amoebae trophozoites were enumerated by haemocytometer. In some trails, these compounds were tested at different concentrations (12.5, 25, 50 and 100 µM) to determine their 50% inhibitory concentration (IC50) against A. castellanii.

[2] = system: A. castellanii binding to HeLa cells; test: Adhesion assay: amoebae binding to human cells; assay type: cell-based, Acanthamoeba castellanii; details: amoebae pre-treated with 50 µM for 2 h; 60 min on HeLa monolayer
Experimental: Adhesion assays were performed to determine how the tested molecules affect the binding capability of amoebae to human cells. Firstly, A. castellanii (5 ×10^5) trophozoites were treated with 50 µM of the compounds in serum-free RPMI medium at 30 °C for 2 h. Next, pre-treated amoebae were centrifuged at 3000× g for 5 min and re-suspended the amoeba in 200 µL of RPMI medium. The total assay volume including pre-treated amoeba was transferred to a confluent HeLa cell monolayer cultured in 96-well plates. For control, amoebae trophozoites alone were added to HeLa cell monolayer. The plates were incubated for 60 min at 37 °C with 5% CO2 and 95% humidity and amoebae (unbound) were then counted by haemocytometer. Percent bound amoebae was calculated using the following formula: % amoebae (bound) = 100 − amoebae (unbound)(1)

[3] = system: A. castellanii trophozoites; test: Encystation assay; assay type: cell-based, Acanthamoeba castellanii; details: 50 µM, 16% glucose, 30 °C, 48–72 h; negative control 100%
Experimental: Encystation assays were performed to determine the effects of the tested compounds to prevent the differentiation of A. castellanii trophozoites into the cyst form and 50 µM of the tested compounds were utilized. Briefly, A. castellanii (1 × 10^6) trophozoites were incubated with these compounds with 16% filter-sterilized glucose (as encystation medium) at 30 °C 48–72 h. A. castellanii cultured alone in 16% glucose was taken as negative control. After this incubation, 0.1% sodium dodecyl sulfate (SDS) was added to each well and agitated the plate for 20 min. The SDS resistant cysts were enumerated using a haemocytometer and data was recoded.

HeLa cells = test: In vitro cytotoxicity, lactate dehydrogenase (LDH) assay; assay type: cell-based, human; details: 50 µM, 24 h, LDH release
Experimental: HeLa cells were obtained from the American Type Culture Collection (ATCC CCL-2) and grown at 37 °C with 5% CO2 and 95% humidity in RPMI supplemented with 10% fetal bovine serum (FBS), 1% minimum essential medium amino acids, 1% Penicillin-Streptomycin (Pen-Strep) and 1% L-glutamine. The media was removed aseptically, and cells were detached enzymatically using 2 mL of trypsin EDTA. Next, culture containing dislodged cells was centrifuged at 2500× g for 5 min. The cell pellet was resuspended in the above-mentioned media, subsequently added into 96-well plates and utilized in different assays. In vitro cytotoxic effects of the tested molecules were determined using Lactate dehydrogenase (LDH) assays against human cells. In brief, 50 µM concentration of the tested compounds were incubated with HeLa cells monolayer for 24 h at 37 °C with 5% CO2 in humidified conditions. After this incubation, 0.1% triton X-100 was added to the positive control wells and incubated the plate for 45 min at 37 °C. Then, an equal volume of cells supernatant containing liberated LDH enzyme was mixed with an equal volume of LDH kit reagents (Cytotoxicity Detection kit; Roche Diagnostics, Indianapolis, IN, USA). The positive and negative controls were cell monolayers treated with 0.1 percent Triton X-100 and in RPMI alone. The plate was subjected to multi-plate reader and absorbance was recorded at 490 nm. The percent cytotoxicity was calculated using given formula; % Cell cytotoxicity = sample value − negative control value/positive control value − negative control value × 100.

human cell lines = test: MTT assay (EC50/CC50 and MNTD90); assay type: cell-based; details: for EC90: Maximum Non-Toxic Dose, read-out: MNTD/EC90; for CC50: 50% effective/cytotoxic concentration (CC50), tested at 12.5–100 µM
[4] = system: A. castellanii-mediated HeLa cell death; test: Amoeba-mediated host cell cytotoxicity (cytopathogenicity assay, LDH); assay type: cell-based, Acanthamoeba castellanii; details: amoebae pre-treated with 50 µM for 2 h; HeLa overnight; negative control amoeba + cells 100%
Experimental: Cytopathogenicity assays were accomplished to determine the amoeba-mediated host cell death. A. castellanii (5 × 10^5) trophozoites were treated with 50 µM of the tested molecules at 30 °C for 2 h. Culture containing pre-treated amoebae was centrifuged at 3000× g for 5 min and pellet was re-suspended in 200 µL of serum free RPMI. The whole assay volume with pre-treated amoebae was transferred to HeLa cell monolayer cultured in a 96 well plates. Next, the plates were kept for overnight at 37 °C with 95% humidity and 5% CO2. Finally, amoeba-mediated host cell cytotoxicity was evaluated indirectly by measuring the amount of LDH enzyme released into cell media by damaged cells, as reported earlier.

A. castellanii = system: A. castellanii; design: method as in PMID 34959694; details: cited from earlier work
V600E-B-RAF = system: V600E-B-RAF; design: method as in PMID 32962435; details: cited from earlier work
C-RAF = system: C-RAF; design: method as in PMID 32962435; details: cited from earlier work

| Compound | Amoebicidal Activity Inhibition % ± SEM [1] | amoebicidal effects / antiamoebic activity against A. castellanii [1] [%] | pIC50 [1] | inhibition of amoebae binding to human cells [2] [%] | encystation blocked (trophozoites prevented from converting into cysts) [3] [%] | cytotoxicity against HeLa cells (HeLa cells) [%] | EC90 (human cell lines) [µM] | CC50 (human cell lines) [µM] | amoeba-mediated host cell death reduced up to [4] [%] | concentration that prevented excystment in A. castellanii (A. castellanii) [µM] | inhibitory effects against V600E-B-RAF kinase (V600E-B-RAF) | inhibitory effects against C-RAF kinase (C-RAF) |
| --- | --- | --- | --- | --- | --- | --- | --- | --- | --- | --- | --- | --- |
| CN1CCN(CCNc2nccc(-c3c(-c4cccc(O)c4)nc4sccn34)n2)S1(=O)=O [Compound 1zd] | 58.00% ± 3.41% | 58 | 4.39 | 42 | 62 | 37 | 145 |  |  |  |  |  |
| O=C(NCCNc1nccc(-c2c(-c3ccc(F)cc3)nc3sccn23)n1)c1cc(C(F)(F)F)cc(C(F)(F)F)c1 [Compound 1i] | 55.05% ± 1.25% | 55 | 4.37 | 42 | 60 |  | 90.9 | 1410 | 45 |  |  |  |
| O=C(NCCNc1nccc(-c2c(-c3cccc(O)c3)nc3sccn23)n1)c1ccc(N2CCOCC2)c(C(F)(F)F)c1 [Compound 1zb] | 67.00% ± 3.19% | 67 | 4.49 | 55 | 78 |  | 24.1 | 434 | 46 |  |  |  |
| CNCC(=O)OCc1cccnc1N(C)C(=O)OC(C)[n+]1cnn(C[C@](O)(c2cc(F)ccc2F)[C@@H](C)c2nc(-c3ccc(C#N)cc3)cs2)c1.O=S(=O)([O-])O (stereo partly shown) [isavuconazonium sulfate] |  |  |  |  |  |  |  |  |  | 136 |  |  |
| COc1cccc(-c2nc3sccn3c2-c2ccnc(NCCNC(=O)Nc3cccc(C(F)(F)F)c3)n2)c1 [Compound 1m] | 69.17% ± 2.39% | 70 | 4.52 | 61 | 72 |  | 29.5 | 313 | 33 |  | modest inhibitory effects | modest inhibitory effects |
